Measurements: PubChem BioAssay AID260 (DTP/NCI, 2004)
“And” between values parts separate entries of the source, which are not always exact repeats. Identical values can stand only once. Toxic doses and inconclusive results are not listed.

Tested on: CD2F1 mice, intracerebral L1210 leukemia, survival T/C
Assay: NCI In Vivo Anticancer Drug Screen. Data for tumor model L1210 Leukemia (intracerebral) in CD2F1 (CDF1) mice
Conditions: endpoint: median survival time, higher = longer survival
Method: The antitumor activity of compounds was measured in mice bearing transplantable tumors. Survival or tumor size were measured and the results are expressed as the measurement made in the treated group (T) divided by the measurement made in the vehicle treated control group (C). The tumor model used in this assay is L1210 Leukemia (intracerebral) in CD2F1 (CDF1) mice

CCCN(C)C(=O)N(CCCl)N=O
T/C (dose: 15.6 mg/kg/injection, schedule: Q01DX001 (ip), vehicle: DMSO): 166 % of control | T/C (dose: 15.6 mg/kg/injection, schedule: Q01DX001 (oral), vehicle: saline + alcohol): 113 % of control | T/C (dose: 31.3 mg/kg/injection, schedule: Q01DX001 (ip), vehicle: saline + alcohol): 172 % of control | T/C (dose: 31.3 mg/kg/injection, schedule: Q01DX001 (oral), vehicle: saline + alcohol): 154 % of control | T/C (dose: 62.5 mg/kg/injection, schedule: Q01DX001 (ip), vehicle: saline + alcohol): 389 % of control | T/C (dose: 62.5 mg/kg/injection, schedule: Q01DX001 (oral), vehicle: saline + alcohol): 271 % of control | T/C (dose: 125.0 mg/kg/injection, schedule: Q01DX001 (ip), vehicle: saline + alcohol): 198 % of control | T/C (dose: 125.0 mg/kg/injection, schedule: Q01DX001 (oral), vehicle: saline + alcohol): 490 % of control | T/C (dose: 250.0 mg/kg/injection, schedule: Q01DX001 (ip), vehicle: DMSO): 169 % of control | T/C (dose: 250.0 mg/kg/injection, schedule: Q01DX001 (ip), vehicle: saline + alcohol): 116 % of control | T/C (dose: 250.0 mg/kg/injection, schedule: Q01DX001 (oral), vehicle: saline + alcohol): 97 % of control

O=C1c2c(O)ccc(O)c2C(=O)c2c(NCCNCCO)ccc(NCCNCCO)c21
T/C (dose: 0.5 mg/kg/injection, schedule: Q01DX009 (ip), vehicle: saline with Tween-80): 122 % of control and 110 % of control | T/C (dose: 1.0 mg/kg/injection, schedule: Q01DX009 (ip), vehicle: saline with Tween-80): 120 % of control | T/C (dose: 2.0 mg/kg/injection, schedule: Q01DX009 (ip), vehicle: saline with Tween-80): 121 % of control | T/C (dose: 4.0 mg/kg/injection, schedule: Q01DX009 (ip), vehicle: saline with Tween-80): 105 % of control and 106 % of control
